The values that follow come from PMC9065575, “Synthesis, computational studies, antimycobacterial and antibacterial properties of pyrazinoic acid–isoniazid hybrid conjugates” (RSC Advances, 2019).

Read-outs that look alike come from different tables or passages of the source.

Assay in all cases: Aerobic antibacterial MIC, standard dilution technique
What all share (assay type): cell-based

In one assay the test system is Klebsiella pneumoniae. The following applies: clinical isolate, read-out: Minimum inhibitory concentration (MIC) Klebsiella pneumoniae. An excerpt:
(§1) Antibacterial properties were investigated for the synthesized compounds against a variety of Gram-positive (Staphylococcus aureus, Enterococcus faecalis) and Gram-negative (Klebsiella pneumonia, Proteus vulgaris, Pseudomonas aeruginosa) clinical isolate bacteria utilizing the standard technique.[21]

A further assay concerns Pseudomonas aeruginosa. The conditions noted are these: clinical isolate, read-out: Minimum inhibitory concentration (MIC) Pseudomonas aeruginosa.
Text: as §1

In the next assay the test system is Staphylococcus aureus. The following applies: clinical isolate, read-out: Minimum inhibitory concentration (MIC) Staphylococcus aureus.
Text: as §1

The next assay deals with Proteus vulgaris. The conditions noted are these: clinical isolate, read-out: Minimum inhibitory concentration (MIC) Proteus vulgaris.
Text: as §1

The next assay relates to Enterococcus faecalis. The conditions noted are these: clinical isolate, read-out: Minimum inhibitory concentration (MIC) Enterococcus faecalis.
Text: as §1

[1] abbreviates: Enterococcus faecalis, value in parentheses.

Consider `NC(=O)c1cnccn1` [C00001], for which the MIC was found to be 64 µg/mL in the assay with Klebsiella pneumoniae; 520 µM with Klebsiella pneumoniae (value in parentheses); 4 µg/mL with Pseudomonas aeruginosa; 32.5 µM in the assay with Pseudomonas aeruginosa (value in parentheses); 1020 µg/mL with Staphylococcus aureus; 8320 µM in the assay with Staphylococcus aureus (value in parentheses). Besides, the MIC was 8 µg/mL with Proteus vulgaris, 65 µM with Proteus vulgaris (value in parentheses), 0.12 µg/mL in the assay on Enterococcus faecalis (Enterococcus faecalis) and 0.97 µM in the assay with Enterococcus faecalis (setting [1]).

As to `NNC(=O)c1ccncc1` [C00002], the MIC with Klebsiella pneumoniae worked out at 8 µg/mL; with Klebsiella pneumoniae (value in parentheses), 58.3 µM; with Pseudomonas aeruginosa, 64 µg/mL; with Pseudomonas aeruginosa (value in parentheses) it was 467 µM; in the assay with Staphylococcus aureus, 64 µg/mL; in the assay with Staphylococcus aureus (value in parentheses) it was 467 µM. For the same compound, the MIC stood at 64 µg/mL in the assay with Proteus vulgaris, 467 µM in the assay on Proteus vulgaris (value in parentheses), 16 µg/mL in the assay on Enterococcus faecalis (Enterococcus faecalis) and 117 µM in the assay on Enterococcus faecalis (setting [1]).

Consider `CC(C)C[C@H](NC(=O)c1cnccn1)C(=O)O` [C00004], for which the MIC amounted to 64 µg/mL in the assay with Klebsiella pneumoniae; 270 µM with Klebsiella pneumoniae (value in parentheses); 0.03 µg/mL in the assay on Pseudomonas aeruginosa; 0.13 µM with Pseudomonas aeruginosa (value in parentheses); 1020 µg/mL in the assay on Staphylococcus aureus; 4320 µM with Staphylococcus aureus (value in parentheses). The MIC was 8 µg/mL in the assay with Proteus vulgaris, 33.7 µM in the assay on Proteus vulgaris (value in parentheses), 0.03 µg/mL with Enterococcus faecalis (Enterococcus faecalis) and 0.13 µM with Enterococcus faecalis (setting [1]).

In the case of `CC(C)[C@H](NC(=O)c1cnccn1)C(=O)O` [C00005], the MIC with Klebsiella pneumoniae came to 0.03 µg/mL; with Klebsiella pneumoniae (value in parentheses), 0.13 µM; with Pseudomonas aeruginosa, 4 µg/mL; in the assay on Pseudomonas aeruginosa (value in parentheses) it was 17.9 µM; with Staphylococcus aureus it was 512 µg/mL; with Staphylococcus aureus (value in parentheses), 2290 µM. In addition, the figures for the MIC with Proteus vulgaris, in the assay on Proteus vulgaris (value in parentheses) and in the assay with Enterococcus faecalis (Enterococcus faecalis) were 0.06 µg/mL, 0.27 µM and 0.03 µg/mL, respectively.

For `CC[C@@H](C)[C@H](NC(=O)c1cnccn1)C(=O)O` [C00006], the MIC in the assay with Klebsiella pneumoniae amounted to 8 µg/mL; in the assay on Klebsiella pneumoniae (value in parentheses), 33.7 µM; in the assay with Pseudomonas aeruginosa, 0.12 µg/mL; in the assay with Pseudomonas aeruginosa (value in parentheses), 0.51 µM; with Staphylococcus aureus, 16 µg/mL; in the assay with Staphylococcus aureus (value in parentheses) it was 67.4 µM. Also, the MIC is 0.06 µg/mL in the assay with Proteus vulgaris, 0.25 µM in the assay with Proteus vulgaris (value in parentheses), 0.03 µg/mL in the assay with Enterococcus faecalis (Enterococcus faecalis) and 0.13 µM with Enterococcus faecalis (setting [1]).

Take `CSCC[C@H](NC(=O)c1cnccn1)C(=O)O` [C00007]: the MIC with Klebsiella pneumoniae is 64 µg/mL; in the assay on Klebsiella pneumoniae (value in parentheses) it was 251 µM; in the assay on Pseudomonas aeruginosa it was 0.12 µg/mL; in the assay on Pseudomonas aeruginosa (value in parentheses), 0.47 µM; in the assay with Staphylococcus aureus, 16 µg/mL; with Staphylococcus aureus (value in parentheses), 62.7 µM. For the same compound, the MIC with Proteus vulgaris was determined as 0.06 µg/mL; in the assay on Proteus vulgaris (value in parentheses) it was 0.24 µM; in the assay on Enterococcus faecalis (Enterococcus faecalis) it was 0.03 µg/mL; in the assay with Enterococcus faecalis (setting [1]), 0.12 µM.

In the case of `O=C(N[C@@H](Cc1ccccc1)C(=O)O)c1cnccn1` [C00008], the MIC in the assay on Klebsiella pneumoniae is 64 µg/mL; with Klebsiella pneumoniae (value in parentheses), 236 µM; in the assay with Pseudomonas aeruginosa, 0.12 µg/mL; in the assay on Pseudomonas aeruginosa (value in parentheses) it was 0.44 µM; with Staphylococcus aureus, 64 µg/mL; in the assay with Staphylococcus aureus (value in parentheses), 236 µM. Besides, the MIC in the assay on Proteus vulgaris stood at 0.06 µg/mL; in the assay with Proteus vulgaris (value in parentheses), 0.22 µM; with Enterococcus faecalis (Enterococcus faecalis), 0.12 µg/mL; with Enterococcus faecalis (setting [1]), 0.44 µM.

Take `O=C(NC(Cc1ccccc1)C(=O)O)c1cnccn1` (stereo not drawn) [C00009]: the MIC in the assay on Klebsiella pneumoniae was 16 µg/mL; with Klebsiella pneumoniae (value in parentheses) it was 59 µM; in the assay with Pseudomonas aeruginosa it was 16 µg/mL; in the assay with Pseudomonas aeruginosa (value in parentheses), 59 µM; in the assay on Staphylococcus aureus it was 16 µg/mL; with Staphylococcus aureus (value in parentheses), 59 µM. Further, the MIC with Proteus vulgaris turned out to be 0.06 µg/mL; in the assay on Proteus vulgaris (value in parentheses), 0.22 µM; in the assay on Enterococcus faecalis (Enterococcus faecalis), 0.03 µg/mL; with Enterococcus faecalis (setting [1]), 0.11 µM.

For the compound `O=C(N[C@@H](Cc1c[nH]c2ccccc12)C(=O)O)c1cnccn1` [C00010], the MIC amounted to 64 µg/mL with Klebsiella pneumoniae; 206 µM with Klebsiella pneumoniae (value in parentheses); 0.12 µg/mL with Pseudomonas aeruginosa; 0.39 µM in the assay on Pseudomonas aeruginosa (value in parentheses); 64 µg/mL in the assay on Staphylococcus aureus; 206 µM in the assay with Staphylococcus aureus (value in parentheses). Besides, the MIC in the assay with Proteus vulgaris was 0.06 µg/mL; in the assay on Proteus vulgaris (value in parentheses), 0.19 µM; in the assay on Enterococcus faecalis (Enterococcus faecalis) it was 0.03 µg/mL; in the assay with Enterococcus faecalis (setting [1]) it was 0.1 µM.

`CC(C)C[C@H](NC(=O)c1cnccn1)C(=O)NNC(=O)c1ccncc1` [C00011]: the MIC in the assay on Klebsiella pneumoniae was determined as 4 µg/mL; with Klebsiella pneumoniae (value in parentheses) it was 11.2 µM; in the assay on Pseudomonas aeruginosa, 64 µg/mL; with Pseudomonas aeruginosa (value in parentheses), 180 µM; in the assay on Staphylococcus aureus, 2 µg/mL; with Staphylococcus aureus (value in parentheses) it was 5.61 µM. The MIC in the assay with Proteus vulgaris worked out at 0.06 µg/mL; with Proteus vulgaris (value in parentheses), 0.17 µM; with Enterococcus faecalis (Enterococcus faecalis) it was 0.03 µg/mL; with Enterococcus faecalis (setting [1]), 0.08 µM.

For the compound `CC(C)[C@H](NC(=O)c1cnccn1)C(=O)NNC(=O)c1ccncc1` [C00012], the MIC with Klebsiella pneumoniae came out at 8 µg/mL; with Klebsiella pneumoniae (value in parentheses) it was 23.4 µM; in the assay with Pseudomonas aeruginosa it was 0.12 µg/mL; with Pseudomonas aeruginosa (value in parentheses), 0.35 µM; in the assay with Staphylococcus aureus, 16 µg/mL; in the assay with Staphylococcus aureus (value in parentheses), 46.7 µM. For the same compound, the MIC in the assay on Proteus vulgaris worked out at 0.06 µg/mL; in the assay with Proteus vulgaris (value in parentheses), 0.18 µM; in the assay on Enterococcus faecalis (Enterococcus faecalis), 0.12 µg/mL; in the assay with Enterococcus faecalis (value in parentheses), 0.35 µM.

In the case of `CC[C@H](C)[C@H](NC(=O)c1cnccn1)C(=O)NNC(=O)c1ccncc1` [C00013], the MIC with Klebsiella pneumoniae came out at 8 µg/mL; in the assay with Klebsiella pneumoniae (value in parentheses), 22.4 µM; in the assay on Pseudomonas aeruginosa it was 0.12 µg/mL; in the assay with Pseudomonas aeruginosa (value in parentheses) it was 0.34 µM; in the assay with Staphylococcus aureus, 16 µg/mL; with Staphylococcus aureus (value in parentheses), 44.9 µM. In addition, the MIC in the assay with Proteus vulgaris came out at 0.06 µg/mL; in the assay on Proteus vulgaris (value in parentheses), 0.17 µM; in the assay with Enterococcus faecalis (Enterococcus faecalis) it was 0.03 µg/mL; in the assay with Enterococcus faecalis (setting [1]) it was 0.08 µM.

With `CSCC[C@H](NC(=O)c1cnccn1)C(=O)NNC(=O)c1ccncc1` [C00014], the MIC with Klebsiella pneumoniae is 4 µg/mL; with Klebsiella pneumoniae (value in parentheses), 10.7 µM; in the assay with Pseudomonas aeruginosa, 0.12 µg/mL; in the assay with Pseudomonas aeruginosa (value in parentheses) it was 0.32 µM; in the assay with Staphylococcus aureus, 64 µg/mL; with Staphylococcus aureus (value in parentheses), 171 µM. The MIC came out at 0.06 µg/mL in the assay on Proteus vulgaris, 0.16 µM with Proteus vulgaris (value in parentheses), 0.03 µg/mL in the assay with Enterococcus faecalis (Enterococcus faecalis) and 0.08 µM in the assay with Enterococcus faecalis (setting [1]).

As to `O=C(NNC(=O)[C@H](Cc1ccccc1)NC(=O)c1cnccn1)c1ccncc1` [C00015], the MIC in the assay with Klebsiella pneumoniae is 8 µg/mL; in the assay with Klebsiella pneumoniae (value in parentheses), 20.5 µM; with Pseudomonas aeruginosa it was 0.12 µg/mL; with Pseudomonas aeruginosa (value in parentheses), 0.31 µM; with Staphylococcus aureus, 16 µg/mL; in the assay on Staphylococcus aureus (value in parentheses), 41 µM. Further, the MIC in the assay on Proteus vulgaris turned out to be 0.06 µg/mL; with Proteus vulgaris (value in parentheses), 0.15 µM; in the assay with Enterococcus faecalis (Enterococcus faecalis) it was 0.12 µg/mL; with Enterococcus faecalis (setting [1]), 0.31 µM.

For `O=C(NNC(=O)C(Cc1ccccc1)NC(=O)c1cnccn1)c1ccncc1` (stereo not drawn) [C00016], the MIC in the assay with Klebsiella pneumoniae came out at 8 µg/mL; with Klebsiella pneumoniae (value in parentheses) it was 20.5 µM; in the assay with Pseudomonas aeruginosa, 32 µg/mL; in the assay with Pseudomonas aeruginosa (value in parentheses), 82 µM; with Staphylococcus aureus it was 16 µg/mL; in the assay with Staphylococcus aureus (value in parentheses), 41 µM. Besides, the MIC in the assay with Proteus vulgaris stood at 16 µg/mL; with Proteus vulgaris (value in parentheses), 41 µM; with Enterococcus faecalis (Enterococcus faecalis), 0.03 µg/mL; in the assay on Enterococcus faecalis (setting [1]), 0.08 µM.

In the case of `O=C(NNC(=O)[C@H](Cc1c[nH]c2ccccc12)NC(=O)c1cnccn1)c1ccncc1` [C00017], the MIC with Klebsiella pneumoniae worked out at 4 µg/mL; in the assay with Klebsiella pneumoniae (value in parentheses), 9.31 µM; in the assay with Pseudomonas aeruginosa, 0.12 µg/mL; with Pseudomonas aeruginosa (value in parentheses), 0.28 µM; in the assay on Staphylococcus aureus, 16 µg/mL; in the assay with Staphylococcus aureus (value in parentheses) it was 37.3 µM. Besides, the MIC in the assay on Proteus vulgaris was determined as 0.06 µg/mL; in the assay with Proteus vulgaris (value in parentheses), 0.14 µM; in the assay with Enterococcus faecalis (Enterococcus faecalis), 0.03 µg/mL; in the assay with Enterococcus faecalis (setting [1]), 0.07 µM.

On to `O=C(NNC(=O)c1cnccn1)c1ccncc1` [C00018], for which the MIC is 8 µg/mL in the assay with Klebsiella pneumoniae; 0.03 µg/mL with Pseudomonas aeruginosa; 0.12 µM in the assay on Pseudomonas aeruginosa (value in parentheses); 8 µg/mL in the assay with Staphylococcus aureus; 64 µg/mL with Proteus vulgaris; 16 µg/mL in the assay with Enterococcus faecalis (Enterococcus faecalis).
